Each block holds one compound with its values, some of them ahead of it.
Biological target: T1, α4β1 integrin (Homo sapiens, UniProt P05556+P13612)
T1 construct: endogenous in cells; host or cells: Ramos cells
Experiment: Adhesion of calcein-labeled Ramos cells to CS1 (fibronectin) peptide conjugated ovalbumin
Type: cell-based
Details: Ramos cell adhesion to CS1 conjugated ovalbumin
Method: A procedure in which a 26-amino acid peptide containing the CS1 sequence of fibronectin with an N-terminal Cys ([…]) was coupled to maleimide activated ovalbumin was used to determine the efficacy of the compounds synthesized. Bovine serum albumin (BSA) and CS1 conjugated ovalbumin were coated onto 96-well polystyrene plates at 0.5 μg/ml in TBS (50 mM TRIS, pH 7.5; 150 mM NaCl) at 4° C. for 16 hours. The plates were washed three times with TBS and blocked with TBS containing 3% BSA at room temperature for 4 hours. Blocked plates were washed three times in binding buffer (TBS; 1 mM MgCl2; 1 mM CaCl2; 1 mM MnCl2) prior to assay. Ramos cells fluorescently labeled with calcein AM were resuspended in binding buffer (10^7 cells/ml) and diluted 1:2 with same buffer with or without compound. 100 μM of compound was added. The cells were added immediately to the wells (2.5×10^5 cells/well) and incubated for 30 minutes at 37° C. Following three washes with binding buffer, adherent cells were lysed and quantitated using a fluorometer. IC50 is defined as the dose required to give 50% inhibition, measured in μM for Tables 2 and 4. The lower the IC50 value and the greater the percentage of inhibition, the more efficient the compound is at prevention of cell adhesion.

[1] = Table 7, dose required to give 50% inhibition
[2] = Table 5, dose required to give 50% inhibition

T1 sequence (P13612 34-1032): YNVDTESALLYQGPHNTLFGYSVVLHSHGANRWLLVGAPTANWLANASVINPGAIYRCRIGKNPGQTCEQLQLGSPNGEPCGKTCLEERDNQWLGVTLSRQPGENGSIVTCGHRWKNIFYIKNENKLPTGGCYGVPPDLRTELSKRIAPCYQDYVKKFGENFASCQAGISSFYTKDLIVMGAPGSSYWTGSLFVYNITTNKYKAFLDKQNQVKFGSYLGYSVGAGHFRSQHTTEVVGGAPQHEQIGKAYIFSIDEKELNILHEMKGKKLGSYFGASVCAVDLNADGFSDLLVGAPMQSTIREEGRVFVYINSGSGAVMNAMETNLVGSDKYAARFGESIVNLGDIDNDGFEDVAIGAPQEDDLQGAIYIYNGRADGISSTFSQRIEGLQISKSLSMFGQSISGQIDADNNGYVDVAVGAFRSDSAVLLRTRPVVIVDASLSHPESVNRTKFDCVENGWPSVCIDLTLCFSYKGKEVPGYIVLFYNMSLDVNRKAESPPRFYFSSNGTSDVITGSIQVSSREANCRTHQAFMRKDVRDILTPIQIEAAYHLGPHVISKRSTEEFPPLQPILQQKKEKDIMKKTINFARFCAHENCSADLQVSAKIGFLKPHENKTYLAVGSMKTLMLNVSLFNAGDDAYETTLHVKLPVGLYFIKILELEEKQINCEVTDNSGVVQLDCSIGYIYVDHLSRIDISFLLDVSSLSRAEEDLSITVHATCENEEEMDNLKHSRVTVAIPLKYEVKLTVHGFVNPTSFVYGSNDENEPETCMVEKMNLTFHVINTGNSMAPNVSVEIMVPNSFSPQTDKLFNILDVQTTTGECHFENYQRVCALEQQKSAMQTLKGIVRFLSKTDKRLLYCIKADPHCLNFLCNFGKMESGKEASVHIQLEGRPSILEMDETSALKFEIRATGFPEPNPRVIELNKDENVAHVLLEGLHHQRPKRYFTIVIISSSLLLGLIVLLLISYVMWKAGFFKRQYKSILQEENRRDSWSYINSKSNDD
T1 sequence (P05556 21-798): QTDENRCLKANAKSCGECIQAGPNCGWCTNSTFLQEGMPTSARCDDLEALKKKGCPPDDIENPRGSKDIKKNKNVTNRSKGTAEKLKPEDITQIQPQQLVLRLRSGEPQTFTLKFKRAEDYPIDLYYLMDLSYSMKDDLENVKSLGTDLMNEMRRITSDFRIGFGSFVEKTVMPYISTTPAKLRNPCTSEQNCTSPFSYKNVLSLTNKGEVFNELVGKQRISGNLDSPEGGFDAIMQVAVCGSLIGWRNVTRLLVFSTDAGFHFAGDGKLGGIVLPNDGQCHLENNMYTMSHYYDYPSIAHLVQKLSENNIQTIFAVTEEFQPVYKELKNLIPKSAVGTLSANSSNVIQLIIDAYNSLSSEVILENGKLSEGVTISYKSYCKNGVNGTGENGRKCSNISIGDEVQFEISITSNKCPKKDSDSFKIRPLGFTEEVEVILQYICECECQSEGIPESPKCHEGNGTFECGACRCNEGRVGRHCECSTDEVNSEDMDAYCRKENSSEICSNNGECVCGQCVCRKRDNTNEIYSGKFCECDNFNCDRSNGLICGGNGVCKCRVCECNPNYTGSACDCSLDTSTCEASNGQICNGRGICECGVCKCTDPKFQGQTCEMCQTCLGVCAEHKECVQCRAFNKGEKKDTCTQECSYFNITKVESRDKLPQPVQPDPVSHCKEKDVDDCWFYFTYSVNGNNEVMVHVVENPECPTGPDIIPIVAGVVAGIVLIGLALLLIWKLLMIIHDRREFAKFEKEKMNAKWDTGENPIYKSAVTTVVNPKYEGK

IC50 [1]: 1.6 nM
Compound: CN(c1cccc([C@H](CC(=O)O)NC(=O)Nc2c(O)c3c(n(Cc4ccccc4Cl)c2=O)CCC3)c1)S(C)(=O)=O [(3S)-3-{[({1-[(2-chlorophenyl)methyl]-4-hydroxy-2-oxo-2,5,6,7-tetrahydro-1H-cyclopenta[b]pyridin-3-yl}amino)carbonyl]amino}-3-{3-[methyl(methylsulfonyl)amino]phenyl}propanoic acid]

IC50 [1]: 5 nM
Compound: CCOc1cccc(Cl)c1Cn1c(C)c(CC)c(O)c(NC(=O)N[C@@H](CC(=O)O)c2cccc(OC(C)C)c2)c1=O

IC50 (Table 4, 30 minutes at 37° C.): 80000 nM
Compound: O=C(Nc1cccn(Cc2ccccc2Cl)c1=O)N[C@@H](C(=O)O)c1ccccc1

IC50 [1]: 17 nM
Compound: CCCc1ccc([C@H](CC(=O)O)NC(=O)Nc2c(O)c3c(n(Cc4ccccc4Cl)c2=O)CCC3)cc1

IC50 (Table 6, 30 minutes at 37° C.): 30 nM
Compound: O=C(O)C[C@H](NC(=O)Nc1c(O)ccn(Cc2ccccc2Cl)c1=O)c1ccc(OC(F)F)cc1

IC50 (Table 6, 30 minutes at 37° C.): 14 nM
Compound: COc1cc([C@H](CC(=O)O)NC(=O)Nc2c(O)c3ccccc3n(Cc3ccccc3Cl)c2=O)ccc1C

IC50 [1]: 22 nM
Compound: Cc1cn(Cc2ccccc2Cl)c(=O)c(NC(=O)NC(CC(=O)O)c2cccc(N3CCCCC3)c2)c1O (stereo not drawn)

IC50 [1]: 10 nM
Compound: Cc1cn(Cc2ccccc2Cl)c(=O)c(NC(=O)N[C@@H](CC(=O)O)c2ccccc2F)c1O

IC50 [2]: 2500 nM
Compound: COc1c(Cn2cccc(NC(=O)N[C@@H](CC(=O)O)c3ccc(C)cc3)c2=O)cccc1C(C)(C)C

IC50 (Table 3, 30 minutes at 37° C.): 40 nM
Compound: O=C(O)C[C@H](NC(=O)Nc1c(O)ccn(Cc2ccccc2Cl)c1=O)c1cccc(F)c1

IC50 [2]: 20 nM
Compound: Cc1ccc([C@H](CC(=O)O)NC(=O)Nc2c(O)ccn(Cc3cc(C)ccc3C)c2=O)cc1

IC50 (Table 6, 30 minutes at 37° C.): 115 nM
Compound: O=C(O)C[C@@H](CCc1ccccc1)NC(=O)Nc1c(O)ccn(Cc2ccccc2Cl)c1=O

IC50 [2]: 3 nM
Compound: COc1cc([C@H](CC(=O)O)NC(=O)Nc2c(O)ccn(Cc3ccccc3Cl)c2=O)cc(OC)c1C [(3S)-3-[({[1-(2-chlorobenzyl)-4-hydroxy-2-oxo-1,2-dihydropyridin-3-yl]amino}carbonyl)amino]-3-(3,5-dimethoxy-4-methylphenyl)propanoic acid]

IC50 (Table 6, 30 minutes at 37° C.): 15 nM
Compound: COc1ccc2cc([C@H](CC(=O)O)NC(=O)Nc3c(O)ccn(Cc4ccccc4Cl)c3=O)ccc2c1

IC50 (Table 3, 30 minutes at 37° C.): 3 nM
Compound: Cc1ccc([C@H](CC(=O)O)NC(=O)Nc2c(NC(C)(C)C)ccn(Cc3ccccc3Cl)c2=O)cc1 [(3S)-3-{[({1-[(2-chlorophenyl)methyl]-4-[(1,1-dimethylethyl)amino]-2-oxo-1,2-dihydro-3-pyridinyl}amino)carbonyl]amino}-3-(4-methylphenyl)propanoic acid]

IC50 (Table 4, 30 minutes at 37° C.): 50000 nM
Compound: O=C(Nc1cccn(Cc2ccccc2Cl)c1=O)N[C@H](Cc1ccccc1)C(=O)O

IC50 [2]: 5 nM
Compound: Cc1ccc([C@H](CC(=O)O)NC(=O)Nc2c(O)ccn(Cc3ccccc3Cl)c2=O)cc1C [(3S)-3-[({[1-(2-chlorobenzyl)-4-hydroxy-2-oxo-1,2-dihydropyridin-3-yl]amino}carbonyl)amino]-3-(3,4-dimethylphenyl)propanoic acid]

IC50 (Table 3, 30 minutes at 37° C.): 20 nM
Compound: Cc1ccc([C@H](CC(=O)O)NC(=O)Nc2c(C)ccn(Cc3ccccc3F)c2=O)cc1

IC50 [2]: 2 nM
Compound: CCOc1cccc([C@H](CC(=O)O)NC(=O)Nc2c(O)c(C)cn(Cc3ccccc3Cl)c2=O)c1 [(3S)-3-[({[1-(2-chlorobenzyl)-4-hydroxy-5-methyl-2-oxo-1,2-dihydropyridin-3-yl]amino}carbonyl)amino]-3-(3-ethoxyphenyl)propanoic acid]

IC50 [1]: 7 nM
Compound: O=C(O)C[C@H](NC(=O)Nc1c(O)c2c(n(Cc3ccccc3Cl)c1=O)CCC2)c1cccc(OC2CCCC2)c1

IC50 [1]: 3 nM
Compound: CCCOc1cccc([C@H](CC(=O)O)NC(=O)Nc2c(O)c(C)cn(Cc3c(Cl)cccc3OCC)c2=O)c1

IC50 [1]: 8 nM
Compound: CCc1ccc([C@H](CC(=O)O)NC(=O)Nc2c(O)c3c(n(Cc4ccccc4Cl)c2=O)CCC3)cc1

IC50 (Table 3, 30 minutes at 37° C.): 25 nM
IC50 (Table 4, 30 minutes at 37° C.): 25 nM
Compound: Cc1ccc([C@H](CC(=O)O)NC(=O)Nc2c(-c3ccccn3)nc(C)n(Cc3ccccc3)c2=O)cc1

IC50 [1]: 6 nM
Compound: CCCc1cn(Cc2c(Cl)cccc2OCC)c(=O)c(NC(=O)N[C@@H](CC(=O)O)c2cccc(OCC)c2)c1O

IC50 [1]: 18 nM
Compound: O=C(O)C[C@H](NC(=O)Nc1c(O)c2c(n(Cc3ccccc3Cl)c1=O)CCC2)c1ccc(C(F)(F)F)cc1

IC50 [1]: 4 nM
Compound: CCOc1cccc(Cl)c1Cn1c(C)c(C)c(O)c(NC(=O)N[C@@H](CC(=O)O)c2ccc(C)cc2)c1=O

IC50 (Table 4, 30 minutes at 37° C.): 15000 nM
Compound: O=C(O)C[C@H](NC(=O)Nc1cccn(CCc2cccs2)c1=O)c1ccc2c(c1)OCO2

IC50 [1]: 25 nM
Compound: COc1ccccc1-c1ccc([C@H](CC(=O)O)NC(=O)Nc2c(O)c(C)cn(Cc3ccccc3Cl)c2=O)cc1

Continued, compound first:

Compound: Cc1ccc([C@H](CC(=O)O)NC(=O)Nc2c(O)ccn(Cc3ccccc3F)c2=O)cc1 [(3S)-3-{[({1-[(2-fluorophenyl)methyl]-4-hydroxy-2-oxo-1,2-dihydro-3-pyridinyl}amino)carbonyl]amino}-3-(4-methylphenyl)propanoic acid]
IC50 (Table 3, 30 minutes at 37° C.): 30 nM

Compound: Cc1ccc([C@H](CC(=O)O)NC(=O)Nc2cccn(Cc3ccccc3Cl)c2=O)cc1C
IC50 (Table 4, 30 minutes at 37° C.): 90 nM

Compound: COCCOc1cccc([C@H](CC(=O)O)NC(=O)Nc2c(O)ccn(Cc3ccccc3Cl)c2=O)c1 [(3S)-3-[({[1-(2-chlorobenzyl)-4-hydroxy-2-oxo-1,2-dihydropyridin-3-yl]amino}carbonyl)amino]-3-[3-(2-methoxyethoxy)phenyl]propanoic acid]
IC50 [2]: 3 nM

Compound: Cc1ccc([C@H](CC(=O)O)NC(=O)Nc2c(O)c3c(n(Cc4ccccc4Cl)c2=O)CCCC3)cc1
IC50 [2]: 20 nM

Compound: Cc1ccc([C@H](CC(=O)O)NC(=O)Nc2cccn(Cc3ccc(Cl)cc3Br)c2=O)cc1
IC50 (Table 4, 30 minutes at 37° C.): 1000 nM

Compound: Cc1cn(Cc2ccccc2Cl)c(=O)c(NC(=O)NC(CC(=O)O)c2ccc(C3CC3)cc2)c1O (stereo not drawn)
IC50 [1]: 35 nM

Compound: Cc1ccc([C@H](CC(=O)O)NC(=O)Nc2cnc(C)n(Cc3ccccc3)c2=O)cc1 [(3S)-3-[({[2-methyl-6-oxo-1-(phenylmethyl)-1,6-dihydro-5-pyrimidinyl]amino}carbonyl)amino]-3-(4-methylphenyl)propanoic acid]
IC50 (Table 4, 30 minutes at 37° C.): 100 nM

Compound: CCOc1cccc(Cl)c1Cn1nc(C)c(O)c(NC(=O)N[C@@H](CC(=O)O)c2ccc(C)cc2)c1=O
IC50 [1]: 7 nM

Compound: CCCc1cn(Cc2ccccc2Cl)c(=O)c(NC(=O)N[C@@H](CC(=O)O)c2cccc(OCC)c2)c1O [(3S)-3-[({[1-(2-chlorobenzyl)-4-hydroxy-2-oxo-5-propyl-1,2-dihydropyridin-3-yl]amino}carbonyl)amino]-3-(3-ethoxyphenyl)propanoic acid]
IC50 [2]: 3 nM

Compound: CCOc1cccc([C@H](CC(=O)O)NC(=O)Nc2c(O)c(CC)c(C)n(Cc3c(Cl)cccc3OCC)c2=O)c1
IC50 [1]: 4 nM

Compound: CCOc1ccc(Cl)c(Cl)c1Cn1c2c(c(O)c(NC(=O)N[C@@H](CC(=O)O)c3cccc(OCC4CC4)c3)c1=O)CCC2
IC50 [1]: 7 nM

Compound: Cc1cn(Cc2ccccc2Cl)c(=O)c(NC(=O)NC(CC(=O)O)c2ccc(S(C)(=O)=O)cc2)c1O (stereo not drawn)
IC50 [1]: 134 nM

Compound: Cc1ccc([C@H](CC(=O)O)NC(=O)Nc2c(C)ccn(Cc3ccccc3Br)c2=O)cc1 [(3S)-3-{[({1-[(2-bromophenyl)methyl]-4-methyl-2-oxo-1,2-dihydro-3-pyridinyl}amino)carbonyl]amino}-3-(4-methylphenyl)propanoic acid]
IC50 (Table 3, 30 minutes at 37° C.): 10 nM

Compound: O=C(O)C[C@H](NC(=O)Nc1cccn(Cc2cccs2)c1=O)c1ccc2c(c1)CCO2
IC50 (Table 4, 30 minutes at 37° C.): 140 nM

Compound: CCc1ccn(Cc2ccccc2Cl)c(=O)c1NC(=O)N[C@@H](CC(=O)O)c1ccc(C)cc1 [(3S)-3-{[({1-[(2-chlorophenyl)methyl]-4-ethyl-2-oxo-1,2-dihydro-3-pyridinyl}amino)carbonyl]amino}-3-(4-methylphenyl)propanoic acid]
IC50 (Table 3, 30 minutes at 37° C.): 10 nM

Compound: CCCOc1cccc([C@H](CC(=O)O)NC(=O)Nc2c(O)c3c(n(Cc4ccccc4Cl)c2=O)CCC3)c1
IC50 [1]: 15 nM

Compound: COc1ccc([C@H](CC(=O)O)NC(=O)Nc2c(O)ccn(Cc3ccccc3Cl)c2=O)cc1OC [(3S)-3-[({[1-(2-chlorobenzyl)-4-hydroxy-2-oxo-1,2-dihydropyridin-3-yl]amino}carbonyl)amino]-3-(3,4-dimethoxyphenyl)propanoic acid]
IC50 [2]: 2 nM

Compound: Cc1ccc([C@H](CC(=O)O)NC(=O)Nc2cc(C)cn(Cc3ccccc3Cl)c2=O)cc1 [(3S)-3-{[({1-[(2-chlorophenyl)methyl]-5-methyl-2-oxo-1,2-dihydro-3-pyridinyl}amino)carbonyl]amino}-3-(4-methylphenyl)propanoic acid]
IC50 (Table 3, 30 minutes at 37° C.): 70 nM

Compound: Cc1cn(Cc2ccccc2Cl)c(=O)c(NC(=O)N[C@@H](CC(=O)O)c2cccc(-c3ccccc3F)c2)c1O
IC50 [1]: 25 nM

Compound: O=C(O)C[C@H](NC(=O)Nc1c(O)ccn(Cc2ccccc2Cl)c1=O)c1ccc2c(c1)OCCO2 [(3S)-3-[({[1-(2-chlorobenzyl)-4-hydroxy-2-oxo-1,2-dihydropyridin-3-yl]amino}carbonyl)amino]-3-(2,3-dihydro-1,4-benzodioxin-6-yl)propanoic acid]
IC50 [2]: 10 nM

Compound: Cc1ccc([C@H](Cc2nnn[nH]2)NC(=O)Nc2c(O)c(C)cn(Cc3ccccc3Cl)c2=O)cc1
IC50 [1]: 6000 nM

Compound: O=C(O)C[C@H](NC(=O)Nc1c(O)c2c(n(Cc3ccccc3Cl)c1=O)CCC2)c1cc(F)cc(F)c1
IC50 [1]: 7 nM

Source: patent US6972296B2, “Carboxylic acid derivatives that inhibit the binding of integrins to their receptors” (Encysive Pharmaceuticals Inc., priority 1999, dated 2005)
